Experimental data reported in patent US20230301924A1, “PHARMACEUTICAL FORMULATION” (Janssen Pharmaceuticals, Inc., priority 2020, published 2023).

Key:
Format in all cases: physicochemical
[1] = Solubility test in TPGS with different ratios of PEG1000
Experimental: About 0.2 g of compound (a) was weighed into 1.5 mL HPLC vials, 0.6 g of molten TPGS, TPGS with 5%, 10% or 15% PEG1000 (in w/w of TPGS) were then added and kept stirring at 45° C. at 700 rpm. Additionally to each of these mixtures, 100 ppm of Ascorbic Palmitate were added. After stirring for 24 hours, they were transferred into filter centrifugal tube and centrifuged at 40° C. for 5 minutes at 14000 rpm rate. The solutions in the bottom of filter centrifugal tube were weighed into 25 mL volumetric flasks (about 10-20 mg), diluent was added ACN:H2O=1:1 v/v, ultrasonicated for 10 min and more diluent was added to scale and analyze by UPLC (see method above). The solid residues after solubility test were collected and analyzed by XRPD (the solid residue in TPGS and TPGS with 5% PEG1000 were washed with water at 50° C. 3 times and analyzed by XRPD).
Solubility test of compound (a) in TPGS with different ratio of PEG1000 after stirring at 45° C. for 96 hours were further tested to determine the effect of time on solubility and XRPD pattern.

[2] = Solubility test in Gelucire 50/13 and PEG 3350
Experimental: Compound (a) was weighed into a 1.5 mL HPLC vial, added about 1 mL or 880 mg of molten media, then kept stirring at different temperature at 700 rpm (see details in Table 1). Compound (a) was added until a suspension was visually observable. After stirring for about 24 hours, the obtained mixtures were quickly transferred to a filter centrifugal tube and centrifuged at 40° C. for 1 minute at 14000 rpm rate. The solution in the bottom of the filter centrifugal tube was weighed into 10 mL or 25 mL volumetric flasks (about 15-20 mg), diluents were added (ACN: water=1:1 v/v for PEG3350 or MeOH:water=8:2 v/v for Gelucire 50/13), ultrasonicated for 10 min and more diluent was added to scale and analyzed by UPLC (see method above).

[3] = Solubility of compound (a) in mixed excipients (TPGS with Precirol ATO 5, PEG6000 or PEG3350)
Experimental: The solubility of these mixed excipients with compound (a) was then tested. Different ratios of the excipients were mixed at different temperatures (Table 6); then compound (a) was added and the mixtures stirred at the same temperature. The samples were analyzed by UPLC (see method above).

[4] = Solubility test in PEG1000
Experimental: About 0.5 g of compound (a) was weighed into 4 mL glass vials, 1.5 g of molten PEG1000 were then added and kept stirring at 40° C. or 50° C. at 700 rpm. After stirring for 24 hours, the obtained mixtures were transferred into a filter centrifugal tube and centrifuged at 40° C. for 1 minute at 14000 rpm rate. The solution in the bottom of filter centrifugal tube wad weighed into 25 mL volumetric flasks (about 25 mg), diluent was added ACN:H2O=1:1 v/v, ultrasonicated for 10 min and more diluent was added to scale and analyzed by UPLC (see method above).

- Solubility ([1]; in TPGS + 5 vol % PEG1000 + 100 ppm AP, 45° C., 96 h): 186 mg/g
- Solubility ([1]; in TPGS + 5 vol % PEG1000, 45° C., 24 h): 263 mg/g
- Solubility ([1]; in TPGS + 10 vol % PEG1000 + 100 ppm AP, 45° C., 96 h): 157 mg/g
- Solubility ([1]; in TPGS + 10 vol % PEG1000, 45° C., 24 h): 206 mg/g
- Solubility ([1]; in TPGS + 15 vol % PEG1000 + 100 ppm AP, 45° C., 96 h): 144 mg/g
- Solubility ([1]; in TPGS + 15 vol % PEG1000, 45° C., 24 h): 179 mg/g
- Solubility ([1]; in TPGS + 100 ppm AP, 45° C., 96 h): 225 mg/g
- Solubility ([1]; in TPGS, 45° C., 24 h): 274 mg/g
- Solubility ([2]; in Gelucire 50/13, 55° C., 700 rpm for 24 hours): 141 mg/g
- Solubility ([2]; in Gelucire 50/13, 60° C., 700 rpm for 24 hours): 148 mg/g
- Solubility ([2]; in Gelucire 50/13 after stirring at 55° C. and 60° C. for 24 hours): higher than 120 mg/g
- Solubility ([2]; in PEG 3350, 60° C., 700 rpm for 24 hours): 112 mg/g
- Solubility ([2]; in PEG 3350, 65° C., 700 rpm for 24 hours): 121 mg/g
- Solubility ([2]; in PEG 3350 at both 60° C. and 65° C.): ≤ 120 mg/g
- Solubility ([3]; in TPGS:ATO5 90:10 w/w, 60° C.): 216.1 mg/g
- Solubility ([3]; in TPGS:ATO5 90:10 w/w, 65° C.): 219.0 mg/g
- Solubility ([3]; in TPGS:ATO5 95:5 w/w, 60° C.): 270.0 mg/g
- Solubility ([3]; in TPGS:ATO5 95:5 w/w, 65° C.): 295.5 mg/g
- Solubility ([3]; in TPGS:ATO5 98:2 w/w, 60° C.): 228.2 mg/g
- Solubility ([3]; in TPGS:ATO5 98:2 w/w, 65° C.): 248.5 mg/g
- Solubility ([3]; in TPGS:PEG3350 90:10 w/w, 55° C.): 71.0 mg/g
- Solubility ([3]; in TPGS:PEG3350 90:10 w/w, 60° C.): 76.2 mg/g
- Solubility ([3]; in TPGS:PEG6000 90:10 w/w, 55° C.): 60.8 mg/g
- Solubility ([3]; in TPGS:PEG6000 90:10 w/w, 60° C.): 66.6 mg/g
- Solubility ([3]; in TPGS:PEG6000 95:5 w/w, 55° C.): 81.0 mg/g
- Solubility ([3]; in TPGS:PEG6000 95:5 w/w, 60° C.): 84.0 mg/g
- Solubility ([3]; in TPGS:PEG6000 98:2 w/w, 55° C.): 63.0 mg/g
- Solubility ([3]; in TPGS:PEG6000 98:2 w/w, 60° C.): 66.8 mg/g
- Solubility ([3]; in the Precirol ATO 5/TPGS system): > 200 mg/g
- Solubility ([4]; in PEG1000): about 140 mg/g
- Solubility ([4]; in PEG 1000, 40° C., 700 rpm for 24 hours): 141 mg/g
- Solubility ([4]; in PEG 1000, 50° C., 700 rpm for 24 hours): 146 mg/g
SMILES: COc1cc(NC(C(=O)c2c[nH]c3ccc(OC(F)(F)F)cc23)c2ccc(Cl)cc2OC)cc(S(C)(=O)=O)c1 (centres unmarked) [compound (a)]
